Reference: patent US20150141360A1, “BIOCIDAL COMPOSITIONS” (CEBEC GROUP LTD., priority 2012, published 2015)
≈ marks a conversion by molar mass, not a printed value. Read-outs that look alike come from different tables or passages of the source.

Experiments:
[1] = system: isolated strains from food production environments; assay type: cell-based
Source text: In the early stages of these investigations, efforts were concentrated on two zoonotic pathogens namely verocytoxigenic Escherichia coli O157 and Salmonella species, along with the recently described powdered infant formula pathogen Cronobacter species. […] Some of the genera appeared to be more susceptible compared with others, as in the case of Cronobacter. Attempts to develop tolerant phenotypes were marginally successful and where this was generated, the phenotype was unstable. […] Highly-tolerant mutant phenotypes were obtained and these are currently being studied in detail, using a dedicated technical pipeline, described above. It was decided that it would be of interest to include the food-borne zoonotic pathogen Campylobacter and to evaluate its susceptibility/tolerance to the same panel compounds. Once again, it could be shown that Campylobacter was susceptible. However, as the panel of compounds used could be described as synthetic, the availability of C-Activ-12 presented the opportunity to re-evaluate the responses of these bacteria to this natural biocide. […] In the current project proposal, this inhibitory effect will be characterised in detail, to provide a means of understanding the mode of action. […] C-Activ-12 is a novel natural biocide. The formulation ingredients are FDA GRAS approved comprising organic acids and natural fruit extracted polyphenols. The broad spectrum activity of the formulation resulted it its inclusion in a University College Dublin Government funded independent study under the FIRM (see hereunder) research program. The program studies the effectiveness of products used to manage micro-organisms/pathogens prevalent in the food sector, comparing effectiveness & testing against isolated strains. […] The Irish Department of Agriculture and Food's Food Institutional Research Measure (FIRM) is funded under the National Development Plan 2007-2013. FIRM is the primary national funding mechanism for food research in third level colleges and research institutes. FIRM is a public good competitive programme whereby multi-disciplinary teams from two or more institutions usually carry out the research projects. Research outputs are communicated to industry by a dedicated dissemination team known as RELAY. FIRM aims to develop public good technologies that will underpin a competitive, innovative and sustainable food manufacturing and marketing sector. The programme is creating a base of knowledge and expertise in generic technologies that will support a modern, consumer-focused industry and build Ireland's capacity for R&D. A key output of the FIRM is highly trained young researchers at PhD and postdoctoral level, with specialist skills particularly relevant to the Irish food sector. The following pages provide an overview of the effectiveness of CeBeC's C-Activ-12 in killing micro-organisms. Standard testing protocols were first applied by AIT CBBR under British & European Food Grade Sanitiser Standard BS EN 1276, requiring a log 5 reduction from a log 7 to a log 2. The activity of C-Activ-12 highlighted a greater than log 6 reduction from a log 8. Based on the results under BS EN 1276, UCD added the product under the FIRM study whereby pathogens were isolated from food production environments. The rationale behind this approach is that most standards rely on ATCC & NCTC cultures which are more than often easier to kill than isolates.

[2] = system: Escherichia coli ATCC 25922; test: Preliminary evaluation of bactericidal efficacy (5 min treatment, colony counts); assay type: cell-based; set-up: key: TNTC=To Numerous To Count; conditions: 5 min exposure to 0.5% v/v
Description: The compositions are suitable for use in the food and food processing industry. For rapid screening, a preliminary method allowed selection of the most efficient formulations. […] The composition of each formulation (0.5% v/v) was used blind to ensure no bias. The formulation was reviewed after each set of tests to improve the products composition and efficiency. Prototype formulations were prepared under aseptic conditions.
Typically, an overnight culture of bacteria strains were diluted 1:1000 in sterile hard water to a final density of approx 1×10^6 bacteria. A 1 ml volume of bacteria was treated for 5 minutes at room temperature with 500 μl of antimicrobial solutions. […] The treatment was ceased by the addition of 200 μl of the neutralising solution. All strains were serially diluted to 10^−5 in sterile peptone water and 100 μl were plated in duplicate on the appropriate plate and then incubated at 37° C. for 24 hours except Campylobacter jejuni and Enterococcus hirae. The appropriate controls were included in each test e.g. an unopened agar plate and a set of serially diluted, untreated bacteria. After mesophilic aerobic incubation (or mesophilic microaerophilic incubation for C. jejuni), the number of colonies was enumerated and compared to the untreated controls to determine if a Log order reduction was obtained.

[3] = 74 strains, unheaded column beside Stdev (presumably mean)

Row | Compound | MBC [1, 3] | MIC [1, 3] | MBC Range ([1]; range over 74 strains) | MIC Range ([1]; range over 74 strains) | E. coli bacterial colony counts (average of two replicates), Bacterial Dilution 10^−1 [2] | E. coli bacterial colony counts (average of two replicates), Bacterial Dilution 10^−2 [2] | E. coli bacterial colony counts (average of two replicates), Bacterial Dilution 10^−3 [2] | E. coli bacterial colony counts (average of two replicates), Bacterial Dilution 10^−4 [2] | E. coli bacterial colony counts (average of two replicates), Bacterial Dilution 10^−5 [2] | E. coli bacterial colony counts (average of two replicates), Bacterial Dilution Neat [2] | also measured
1 | O=C(O)c1ccccc1 [Benzoic Acid] |  |  |  |  |  |  |  |  |  |  | MBC [1]: 920.79 µg/mL (≈ 7540 µM); MBC Range [1]: 165 to 1320 µg/mL; MIC [1]: 810.51 µg/mL (≈ 6640 µM); MIC Range [1]: 247.5 to 1320 µg/mL
2 | O=C(O)/C=C/c1ccccc1 [Cininamic Acid] | 119.40 µg/mL (≈ 806 µM) | 95.12 µg/mL (≈ 642 µM) | 23.44 to 421.88 µg/mL | 23.44 to 140.65 µg/mL |  |  |  |  |  |  | 
3 | O=C(O)CC(O)C(=O)O (stereo not shown) [E3, MALIC ACID] |  |  |  |  | TNTC | TNTC | TNTC | TNTC | >61 | TNTC | 
4 | O=C(O)CC(O)(CC(=O)O)C(=O)O [E4, CITRIC ACID] |  |  |  |  | TNTC | TNTC | >159 | TNTC | 10 | TNTC | 
5 | O=C1O[C@H]([C@@H](O)CO)C(O)=C1O [E5, ASCORBIC ACID] |  |  |  |  | TNTC | TNTC | TNTC | TNTC | TNTC | TNTC | 
6 | C=CCc1ccc(O)c(OC)c1 [Eugenol] | 0.99 ul/ml | 0.86 ul/ml | 0.25-2 ul/ml | 0.25-2 ul/ml |  |  |  |  |  |  | 
7 | CC(C)=CCC/C(C)=C/CO [Geraniol] | 9.46 ul/ml | 8.29 ul/ml | 0.94-22.5 ul/ml | 0.94-15^ ul/ml |  |  |  |  |  |  | 
8 | Cc1ccc(C(C)C)c(O)c1 [Thymol] | 121.38 µg/mL (≈ 808 µM) | 85.73 µg/mL (≈ 571 µM) | 4.92 to 315 µg/mL | 19.69-315^ ug/ml |  |  |  |  |  |  | 
9 | O=C/C=C/c1ccccc1 [Trans-cinnaldeheyde] | 0.50 ul/ml | 0.43 ul/ml | 0.05-0.8 ul/ml | 0.2-0.8 ul/ml |  |  |  |  |  |  | 
10 | CC1=CC[C@@H](C(C)(C)O)CC1 [a-Terpineol] | 2.84 ul/ml | 2.43 ul/ml | 0.42-7.59 ul/ml | 0.53-7.59 ul/ml |  |  |  |  |  |  | 
